Tests used:
[1] = system: total-p53 in MCF-7 cells; test: HTRF total-p53 in MCF-7 cells; assay type: cell-based; conditions: Homo sapiens, MCF7, 2 h incubation, median, read-out: HTRF total-p53 MCF-7, IC50 - [mol/l] (median)
Experimental: Day 1: MCF-7 cells were seeded (10,000 cells in 12 μl/well) in a 384-well-Small Volume-plate (Greiner Bio One #784075) in culture medium (RPMI 1640; (Biochrom; #F 1275; without PhenolRed)+FCS (final: 10%); (Biochrom; #S 0415)+Insulin (bovine); (final: 10 μg/mL, Biochrom; #K 3510)+L-Alanyl-L-Glutamine; (final: 2 mM, Biochrom; #K 0302)+Natriumpyruvat; (final: 1 mM, Biochrom; #L 0473)+Non Essentiell Amino Acids; (final: 1×, Biochrom; #K 0293)). The cells were then treated with different compounds or DMSO (added with the HP Dispenser) and incubated for 2 h at 37° C. Following incubation, the cells were lysed in 4 μl of lysis buffer for 1 h shaking at RT. Finally, 4 μl of antibody solution was added and the samples are incubated overnight at RT, shaking.
Total-p53 was detected in a sandwich assay format using 2 different specific antibodies, one labeled with Eu3+-Cryptate (donor) and the second with d2 (acceptor). Kit: HTRF total p53 detection assay (Cisbio Cat: 64T53PEG).
Day 2: the plate was read on PHERAstar FS (BMG Labtech settings; optic module: HTRF; integration start: 60 us; integration time: 400 μs; flash lamp). IC50 values were calculated using the DRC application in ShiNy Analysis Platform-SNAP.”

[2] = system: LoVo cells; test: LoVo cell proliferation assay, CTG method; assay type: cell-based; conditions: Homo sapiens, 96 h, median, read-out: 2D-PROLI LoVo CTG 96 h, IC50 - [mol/l] (median)
Experimental: CELL PROLIFERATION ASSAY CTG METHOD, 384-well version: Day 1: plate 400 cells/30 μL/well in growth medium (RPMI 1640 (Gibco #61870-10; with Glutamax)+10% FBS) in 384-well black plates (Corning #3571). Plated sister wells in a separate plate for time zero determination. Incubated all plates overnight at 37° C. Day 2: added test compounds in serial dilutions using the HP D300 Digital Dispenser and incubate at 37° C. for 96 h. Measured time zero plate: add 30 μL/well CTG solution (Promega CellTiter-Glo solution (catalog #G7573)) to wells in time zero plate; incubated for 2 minutes in a orbital shaker to induce cell lysis; allowed the plate to incubate at room temperature for additional 10 min to stabilize luminescent signal and read luminescence on PheraStar (rapid mode-0.02 sec/well; GAIN 3000). Day 6: Added 30 μL/well CTG solution to all test wells, incubated for 2 minutes in a orbital shaker to induce cell lysis; allowed the plate to incubate at room temperature for additional 10 min to stabilize luminescent signal and read luminescence on PheraStar (rapid mode-0.02 sec/well; GAIN 3000). Proliferation IC50s were calculated using the DRC application in ShiNy Analysis Platform-SNAP.”

[3] = target: human CSNK1A1 (Homo sapiens (Human), UniProt P48729); test: CSNK1A1 assay (ADP-Glo, 1 μM ATP); assay type: biochemical; conditions: median, read-out: CSNK1A1 Low ATP IC50 [mol/l] (median)
Experimental: CSNK1A1-inhibitory activity of compounds of the present invention in presence of 1 μM adenosine-tri-phosphate (ATP) was quantified employing the CSNK1A1 assay as described in the following paragraphs. In essence, the enzyme activity is measured by quantification of the adenosine-di-phosphate (ADP), which is generated as a co-product of the enzyme reaction, via the “ADP-Glo™ Kinase Assay” kit from the company Promega. This detection system works as follows: In a first step the ATP not consumed in the kinase reaction is quantitatively converted to CAMP employing an adenylate cyclase (“ADP-Glo-reagent”), then the adenylate cyclase is stopped and the ADP generated in the kinase reaction converted to ATP which generates in a luciferase-based reaction a glow-luminescence signal (“Kinase Detection Reagent”).
Recombinant fusion protein of N-terminal Glutathion-S-Transferase (GST) and full-length human CSNK1A1, expressed by baculovirus infected insect cells and purified via Glutathion affinity chromatography, was purchased from Life Technologies (product no. PV4174) and used as enzyme. As substrate for the kinase reaction the biotinylated peptide biotin-Ahx-KRRRAL-pS-VASLPGL (C-terminus in amide form) was used which can be purchased e.g. from the company Biosyntan (Berlin-Buch, Germany).
For the assay 50 nl of a 100-fold concentrated solution of the test compound in DMSO was pipetted into a white 1536-well microtiter plate (Greiner Bio-One, Frickenhausen, Germany), 2 μL of a solution of CSNK1A1 in aqueous assay buffer [50 mM HEPES pH 7.5, 10% (v/v) glycerol, 10 mM MgCl2, 50 mM NaCl, 1 mM dithiothreitol, 0.01% (w/v) bovine serum albumin, 0.01% (v/v) Triton X-100] were added and the mixture was incubated for 15 min at 22° C. to allow pre-binding of the test compounds to the enzyme before the start of the kinase reaction. Then the kinase reaction was started by the addition of 3 μL of a solution of ATP (1.67 μM=>final conc. in the 5 μL assay volume is 1 μM) and peptide substrate (50 μM=>final conc. in the 5 μL assay volume is 30 μM) in assay buffer and the resulting mixture was incubated for a reaction time of 30 min at 22° C. The concentration of CSNK1A1 was adjusted depending of the activity of the enzyme lot and was chosen appropriate to have the assay in the linear range, a typical concentrations are about 0.0375 ng/μL. The reaction was stopped by the addition of 2.5 μL of “ADP-Glo-reagent” (1:1.5 fold diluted with water) and the resulting mixture was incubated at 22° C. for 1 h to convert the ATP not consumed in the kinase reaction completely to CAMP. Subsequently 2.5 μL of the “kinase detection reagent” (1.2 fold more concentrated than recommended by the producer) were added, the resulting mixture was incubated at 22° C. for 1 h and then the luminescence measured with a suitable measurement instrument (e.g. Viewlux™ from Perkin-Elmer). The amount of emitted light was taken as a measure for the amount of ADP generated and thereby for the activity of the CSNK1A1.
The data were normalised (enzyme reaction without inhibitor=0% inhibition, all other assay components but no enzyme=100% inhibition).

human CSNK1A1, sequence (P48729 whole entry): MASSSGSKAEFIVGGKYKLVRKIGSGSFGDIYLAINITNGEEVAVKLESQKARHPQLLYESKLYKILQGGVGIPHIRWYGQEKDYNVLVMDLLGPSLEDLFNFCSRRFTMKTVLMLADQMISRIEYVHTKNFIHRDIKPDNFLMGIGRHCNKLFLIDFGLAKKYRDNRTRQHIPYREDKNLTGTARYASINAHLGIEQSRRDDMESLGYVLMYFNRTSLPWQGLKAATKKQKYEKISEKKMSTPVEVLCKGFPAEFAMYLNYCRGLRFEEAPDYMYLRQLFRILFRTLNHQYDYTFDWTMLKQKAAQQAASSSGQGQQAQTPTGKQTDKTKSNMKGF

| IC50 [1] | IC50 [2] | IC50 [3] | SMILES |
| --- | --- | --- | --- |
| 407 nM | 5500 nM | 6.82 nM | Cn1cc(C(CC(F)F)C(=O)Nc2cc(-c3[nH]c4cccnc4c3-c3ccccn3)ccn2)cn1 (stereo not drawn) [Example 19, 4,4-difluoro-2-(1-methylpyrazol-4-yl)-N-[4-[3-(2-pyridyl)-^1H-pyrrolo[3,2-b]pyridin-2-yl]-2-pyridyl]butanamide] |
| 69.3 nM | 192 nM | 1.07 nM | O=C(Cc1cc2ccccn2n1)Nc1cc(-c2[nH]c3cccnc3c2-c2ccccn2)ccn1 [Example 15, 2-pyrazolo[1,5-a]pyridin-2-yl-N-[4-[3-(2-pyridyl)-^1H-pyrrolo[3,2-b]pyridin-2-yl]-2-pyridyl]acetamide] |
| 152 nM | 3140 nM | 1.69 nM | Cc1cc(CC(=O)Nc2cc(-c3[nH]c4cccnc4c3-c3ccccn3)ccn2)on1 [Example 13, 2-(3-methylisoxazol-5-yl)-N-[4-[3-(2-pyridyl)-^1H-pyrrolo[3,2-b]pyridin-2-yl]-2-pyridyl]acetamide] |
| 262 nM | 3240 nM | 1.97 nM | O=C(Cc1ccon1)Nc1cc(-c2[nH]c3cccnc3c2-c2ccccn2)ccn1 [Example 10, 2-isoxazol-3-yl-N-[4-[3-(2-pyridyl)-^1H-pyrrolo[3,2-b]pyridin-2-yl]-2-pyridyl]acetamide] |
| 143 nM | 3750 nM | 1.94 nM | Cc1cc(CC(=O)Nc2cc(-c3[nH]c4cccnc4c3-c3ccccn3)ccn2)n(C)n1 [Example 14] |
| 193 nM | 12400 nM | 5.89 nM | O=C(Cc1cnc2ccccn12)Nc1cc(-c2[nH]c3cccnc3c2-c2ccccn2)ccn1 [Example 1, 2-imidazo[1,2-a]pyridin-3-yl-N-[4-[3-(2-pyridyl)-^1H-pyrrolo[3,2-b]pyridin-2-yl]-2-pyridyl]acetamide] |
| 120 nM | 5410 nM | 1.42 nM | O=C(Cc1ccno1)Nc1cc(-c2[nH]c3cccnc3c2-c2ccccn2)ccn1 [Example 23, 2-isoxazol-5-yl-N-[4-[3-(2-pyridyl)-^1H-pyrrolo[3,2-b]pyridin-2-yl]-2-pyridyl]acetamide] |
| 176 nM | 2100 nM | 2.03 nM | Cc1cc(CC(=O)Nc2cc(-c3[nH]c4cccnc4c3-c3ccccn3)ccn2)no1 [Example 26, 2-(5-methylisoxazol-3-yl)-N-[4-[3-(2-pyridyl)-^1H-pyrrolo[3,2-b]pyridin-2-yl]-2-pyridyl]acetamide] |
| 41 nM | 177 nM | 1.1 nM | O=C(Cc1cnc2ccccc2n1)Nc1cc(-c2[nH]c3cccnc3c2-c2ccccn2)ccn1 [Example 6, N-[4-[3-(2-pyridyl)-^1H-pyrrolo[3,2-b]pyridin-2-yl]-2-pyridyl]-2-quinoxalin-2-yl-acetamide] |
| 264 nM | 8410 nM | 4.21 nM | Cn1cc(CC(=O)Nc2cc(-c3[nH]c4cccnc4c3-c3ccccn3)ccn2)cn1 [Example 2, 2-(1-methylpyrazol-4-yl)-N-[4-[3-(2-pyridyl)-^1H-pyrrolo[3,2-b]pyridin-2-yl]-2-pyridyl]acetamide] |
| 119 nM | 2000 nM | 1.47 nM | O=C(Cc1ccns1)Nc1cc(-c2[nH]c3cccnc3c2-c2ccccn2)ccn1 [Example 22, 2-isothiazol-5-yl-N-[4-[3-(2-pyridyl)-^1H-pyrrolo[3,2-b]pyridin-2-yl]-2-pyridyl]acetamide] |
| 375 nM | 3320 nM | 3.43 nM | Cc1ocnc1CC(=O)Nc1cc(-c2[nH]c3cccnc3c2-c2ccccn2)ccn1 [Example 11, 2-(5-methyloxazol-4-yl)-N-[4-[3-(2-pyridyl)-^1H-pyrrolo[3,2-b]pyridin-2-yl]-2-pyridyl]acetamide] |

From patent US20250188075A1, “SUBSTITUTED HETEROCYCLIC CSNK1 INHIBITORS” (The Broad Institute, Inc., priority 2022, published 2025)
